Where two headings read alike, the source gives them in different places.

Data set [1] can be described thus: Decomposition stability of single perfume component in sodium chlorite/benzalkonium chloride preparation, GC-MS, Example 5. The note with it: for Area change rate (%) / Decomposition stability of additive component: 50° C. for 2 weeks.
Protocol: Next, the prepared preparation was stored at 50° C. for 2 weeks to obtain an aged product. Further, GC-MS of the initial product (preparation before 2 weeks of storage) and the aged product (preparation after 2 weeks of storage) were measured as described below to observe the change in the content of the perfume component (additive component of the present invention).
Each of the preparations was then measured and analyzed by GC-MS according to the method described above.
Further, the peak area measured by GC-MS of each perfume component in the initial product of the preparation of Example 5 was defined as the “initial product area value”, and the peak area measured by GC-MS of each perfume component in the aged product was defined as the “aged product area value”.
The nature of data set [2]: Decomposition stability of perfume components in sodium chlorite/benzalkonium chloride preparation, GC-MS, Examples 1 to 4 (perfume mixtures).
Protocol: Next, the prepared preparation was stored at 500° C. for 2 weeks to obtain an aged product. Further, GC-MS of the initial product (preparation before 2 weeks of storage) and the aged product (preparation after 2 weeks of storage) was measured as described below to observe the change in the content of the perfume components (additive component of the present invention).
An ODS cartridge column (Waters Corporation, trade name SepPAK) was conditioned with the first pass through of 10 mL of methanol and the second pass through of 10 mL of water. 100 mL of a sample solution (preparation prepared in the present example, i.e. the composition of the present invention) was passed through the conditioned column and adsorbed on the column. 3 mL of ethanol was further passed through to elute the composition adsorbed on the column. The elusion was analyzed by GC-MS and the area of the perfume component contained therein was measured. This measurement was performed for each of the initial product (preparation before 2 weeks of storage) and the aged product (preparation after 2 weeks of storage), and the area of the perfume component contained in each was compared.
• Column: InertCap Pure-WAX (trade name of the product manufactured by GL Sciences Inc.), 30 m, inner diameter 0.25 mm, film thickness 0.25 μm • Flow rate: Approximately 40 cm/sec • Column temperature: The temperature is raised at 5° C. per minute from 50° C. to 250° C. • Injection port temperature: 200° C. • Detector temperature: 250° C. • Injection amount: 1 μL • Split ratio: 1:10
Each preparation was then measured and analyzed by GC-MS according to the method described above.
“Area change rate (%)” was calculated from the calculated area values, based on the following Equation [1].
Area change rate (%)=initial product area value/aged product area value×100 [1]
Further, the decomposition stability of the additive components was evaluated in three stages, ∘, Δ and × as described below, according to the area change rate (%).
The nature of data set [3]: Lewis acidity measurement method (1): reaction rate constant of CoTPP and oxygen in the presence of Lewis acid. The class given is physicochemical.
Where [4] appears, read: perfume component 2 ppm in preparation.
Where [5] appears, read: perfume component 5 ppm in preparation.
Setting [6] is: perfume component 6 ppm in preparation.
Where [7] appears, read: Examples 1 to 4, aged products after 2 weeks of storage, GC-MS.
The mark [8] stands for this setting: CoTPP and oxygen under the presence of Lewis acid, MeCN, room temperature.
[9] abbreviates: perfume component 3 ppm in preparation.
[10] abbreviates: perfume component 10 ppm in preparation.
Setting [11] is: perfume component 50 ppm in preparation.
[12] abbreviates: perfume component 1 ppm in preparation.

As to `CC(C)C12CCC(C)(CC1)O2` [1,4-cineole], the “Area change rate (%)” value in data set [1] (setting [4]) turned out to be 95%.

For the compound `CC(C)=C1CC[C@@H](C)CC1=O` [Pulegone], in data set [1] (setting [5]), the “Area change rate (%)” value was 100% and the “Decomposition stability of additive component” value (“Decomposition stability” below) was “∘ (70% or more)”.

`CC1=CC(=O)C(C(C)C)CC1` (centres unmarked) [Piperitone]: in data set [1] (setting [6]), the “Area change rate (%)” value worked out at 89% and the “Decomposition stability” value was “∘ (70% or more)”.

In the case of `Cc1ccc(C(C)C)c(O)c1` [Thymol], in data set [1] (setting [5]), the “Area change rate (%)” value amounted to 76% and the “Decomposition stability” value is listed as “∘ (70% or more)”.

With `Cc1ccccc1C(C)C` [o-cymene, reference compound], the “Fate of perfume component in aged product (in words)” value (“Fate of perfume component” for short) in data set [2] (setting [7]) is recorded as “no peaks were observed”.

As for `CC(C)(C)CC(C)(C)c1ccc(OCCOCC[N+](C)(C)Cc2ccccc2)cc1.[Cl-]` [benzetonium chloride, benzethonium chloride], the kcat in data set [3] (setting [8]) stood at 0.24 M^−2 s^−1.

As for `Cc1coc2c1CCC(C)C2` (centres unmarked) [Menthofuran, reference compound], the “Fate of perfume component” value in data set [2] (setting [7]) is listed as “no peaks were observed”.

For `CCCC[N+](CCCC)(CCCC)CCCC.F[P-](F)(F)(F)(F)F` [tetrabutylammonium hexafluorophosphate], in data set [3], the kcat is recorded as over 0.1 M^−2 s^−1.

`C=CC(C)(O)CCC=C(C)C` (centres unmarked) [Linalool, reference compound]: the “Fate of perfume component” value is “no peaks were observed” in data set [2] (setting [7]) and “remarkably decreased” in data set [1] (Example 5, aged product after 2 weeks at 50° C., GC-MS). Also, the “Area change rate (%)” value in data set [1] (setting [5]) is listed as 0%.

With `OCc1ccccc1` [Benzyl alcohol], in data set [1] (setting [9]), the “Area change rate (%)” value was found to be 84% and the “Decomposition stability” value is recorded as “∘ (70% or more)”.

Regarding `CC(C)[C@@H]1CC[C@@H](C)CC1=O` [Menthone], in data set [1] (setting [5]), the “Area change rate (%)” value is reported as 75% and the “Decomposition stability” value is “∘ (70% or more)”. Moreover, in data set [1] (setting [10]), the “Area change rate (%)” value is 80% and the “Decomposition stability” value is recorded as “∘ (70% or more)”.

On to `C=C(C)C1CC=C(C)C(=O)C1` (centres unmarked) [Carvone], for which, in data set [1] (setting [5]), the “Area change rate (%)” value came to 98% and the “Decomposition stability” value is reported as “∘ (70% or more)”.

For the compound `C=CCc1ccc(O)c(OC)c1` [Eugenol], in data set [1] (setting [5]), the “Area change rate (%)” value is given as 97%.

Turning to `CC(C)C12CCC(C)(O)C1C2` (centres unmarked) [Thujanol, reference compound], in data set [2], the “Fate of perfume component” value is “no peaks were observed”.

For `CC1CCC(C(C)C)C(O)C1` (centres unmarked) [Menthol], the “Area change rate (%)” value in data set [1] (setting [5]), in data set [1] (setting [10]) and in data set [1] (setting [11]) was 100% throughout. The “Decomposition stability” value in data set [1] (setting [5]), in data set [1] (setting [10]) and in data set [1] (setting [11]) was “∘ (70% or more)” each time.

`C=C(C)[C@@H]1CC[C@@H](C)C(=O)C1` [Dihydrocarvone]: the “Area change rate (%)” value in data set [1] (perfume component 4 ppm in preparation) stood at 91%.

As for benzalkonium chloride, the kcat in data set [3] (setting [8]) worked out at 0.18 M^−2 s^−1.

With `CC12CCC(CC1)C(C)(C)O2` [Eucalyptol], in data set [1] (setting [12]), the “Area change rate (%)” value was found to be 99% and the “Decomposition stability” value is “∘ (70% or more)”.

For the compound `CC1CCC(C(C)(C)O)CC1` (centres unmarked) [Dihydroterpineol], the “Area change rate (%)” value in data set [1] (setting [4]) came to 99%.

(Values after patent publication US20250221408A1, “COMPOSITION” (EARTH CORPORATION, priority 2022, published 2025).)
